{"source": "patent US20220233550A1", "about": "“PARP INHIBITOR PELLET PREPARATION AND PREPARATION PROCESS THEREFOR” (BEIGENE, LTD., priority 2019, published 2022)", "key": {"[1]": {"system": "BRCA variant in vitro xenograft model", "conditions": "vs Olaparib; cited from earlier work"}, "CYP": {"system": "CYP", "conditions": "cited from earlier work"}, "PARP": {"system": "PARP", "conditions": "compared with Olaparib and other PARP inhibitors (such as Veliparib); cited from earlier work"}, "[2]": {"conditions": "rodents; cited from earlier work"}, "[3]": {"conditions": "sesquihydrate; cited from earlier work"}, "PARP-1/2": {"system": "PARP-1/2", "conditions": "cited from earlier work"}, "[4]": {"conditions": "cited from earlier work"}, "[5]": {"assay": "Fluidity, judged from electron microscope images", "assay_type": "physicochemical", "conditions": "electron microscope image, FIG. 1 / FIG. 2", "source_text": "FIG. 1 of the description is an electron microscope image of the drug substance Pamiparib, and since the drug substance BGB290 contains crystal water, is very easily agglomerated, and has a poor fluidity, which is not conducive to capsule filling, thereby affecting the industrialized mass production of a formulation. In addition, FIG. 2 of the description is an electron microscope image of the pellets of Example 1. It can be seen from the image that the pellets are round in shape, can be evenly spread under the field of view of an electron microscope, and has a good fluidity. It is sufficient to fulfil the filling of the capsule."}, "[6]": {"system": "cell lines with BRCA1/2 mutations or other HR defects", "conditions": "cited from earlier work"}}, "data": [{"smiles": "C[C@]12CCCN1CC1=NNC(=O)c3cc(F)cc4[nH]c2c1c34", "note": "[Pamiparib, (R)-2-fluoro-10a-methyl-7,8,9,10,10a,11-hexahydro-5,6,7a,11-tetraazacyclohepta[def]cyclopenta[a]fluoren-4(5H)-one sesquihydrate]", "values": [{"measurement": "activity relative to Olaparib", "setting": "[1]", "result": "about 16 times"}, {"measurement": "CYP inhibitory activity", "setting": "CYP", "result": "no CYP inhibitory activity"}, {"measurement": "DNA capture activity", "setting": "PARP", "result": "stronger DNA capture activity"}, {"measurement": "tolerance", "setting": "[2]", "result": "good tolerance"}, {"measurement": "treatment window", "setting": "[2]", "result": "about 10 folds"}, {"measurement": "chemical stability", "setting": "[3]", "result": "excellent chemical stability"}, {"measurement": "PARP1/2 selectivity", "setting": "PARP-1/2; compared with Olaparib and other PARP inhibitors (such as Veliparib)", "result": "better PARP1/2 selectivity"}, {"measurement": "brain permeability", "setting": "[4]", "result": "significant brain permeability"}, {"measurement": "fluidity", "setting": "[5]", "result": "poor fluidity"}]}, {"smiles": "C[C@]12CCCN1CC1=NNC(=O)c3cc(F)cc4[nH]c2c1c34", "note": "[drawing 1, (R)-2-fluoro-10a-methyl-7,8,9,10,10a,11-hexahydro-5,6,7a,11-tetraazacyclohepta[def]cyclopenta[a]fluoren-4(5H)-one]", "values": [{"measurement": "selectivity for PARP-1/2", "setting": "PARP-1/2; free compound of WO 2013/097225A1", "result": "high selectivity for PARP-1/2"}, {"measurement": "inhibition of proliferation", "setting": "[6]", "result": "can effectively inhibit the proliferation"}]}]}
